Organism: Rattus norvegicus
Test: Open TG-GATES - Regimen: Daily Repeat
Assay type: toxicity, organism-based, Sprague-Dawley
Parameters: regimen Daily Repeat, gender Male, age 6 weeks
Details: in vivo, po, 200 mg/kg, route gavage, dose level High; for APTT / Bas / Eos / Fbg / Hb / Ht / Lym / MCH / MCHC / MCV / Mono / Neu / PT / Plat / RBC / Ret / WBC: tissue Blood; for KIDNEY_L / KIDNEY_R / KIDNEY_TOTAL: tissue Kidney; for LIVER: tissue Liver; for A/G / ALP / ALT / AST / BUN / CRE / Ca / Cl / DBIL / GLC / IP / K / LDH / Na / PL / RALB / TBIL / TC / TG / TP / gamma-GTP: tissue Plasma

Compound: NNC(=O)c1ccncc1 [ISONIAZID]
- TERMINAL_BW (72 h, time 3 day): 211.3 g
- APTT (72 h, time 3 day): 15.3 s
- Bas (72 h, time 3 day): 0%
- Eos (72 h, time 3 day): 0.8%
- Fbg (72 h, time 3 day): 228.6 mg/dL
- Hb (72 h, time 3 day): 13.5 g/dL
- Ht (72 h, time 3 day): 40.4%
- Lym (72 h, time 3 day): 78.4%
- MCH (72 h, time 3 day): 21.5 pg
- MCHC (72 h, time 3 day): 33.5%
- MCV (72 h, time 3 day): 64.1 fL
- Mono (72 h, time 3 day): 4.6%
- Neu (72 h, time 3 day): 16%
- PT (72 h, time 3 day): 12 s
- Plat (72 h, time 3 day): 140.8 x10_4/uL
- RBC (72 h, time 3 day): 629.8 x10_4/ul
- Ret (72 h, time 3 day): 6.5%
- WBC (72 h, time 3 day): 96.9 x10_2/uL
- KIDNEY_L (72 h, time 3 day): 1 g
- KIDNEY_R (72 h, time 3 day): 1.1 g
- KIDNEY_TOTAL (72 h, time 3 day): 2.1 g
- LIVER (72 h, time 3 day): 10.5 g
- A/G (72 h, time 3 day): 1.9
- ALP (72 h, time 3 day): 722.8 IU/L
- ALT (72 h, time 3 day): 10.6 IU/L
- AST (72 h, time 3 day): 44.4 IU/L
- BUN (72 h, time 3 day): 19 mg/dL
- CRE (72 h, time 3 day): 0.5 mg/dL
- Ca (72 h, time 3 day): 10.6 mg/dL
- Cl (72 h, time 3 day): 104.8 meq/L
- DBIL (72 h, time 3 day): 0.006 mg/dL
- GLC (72 h, time 3 day): 209.6 mg/dL
- IP (72 h, time 3 day): 7.6 mg/dL
- K (72 h, time 3 day): 5.1 meq/L
- LDH (72 h, time 3 day): 95.8 IU/L
- Na (72 h, time 3 day): 140.2 meq/L
- PL (72 h, time 3 day): 140.6 mg/dL
- RALB (72 h, time 3 day): 3.8 g/dL
- TBIL (72 h, time 3 day): 0.3 mg/dL
- TC (72 h, time 3 day): 78.6 mg/dL
- TG (72 h, time 3 day): 63 mg/dL
- TP (72 h, time 3 day): 5.8 g/dL
- gamma-GTP (72 h, time 3 day): 1.4 IU/L
- TERMINAL_BW ([…], time 7 day): 228.8 g
- TERMINAL_BW ([…], time 14 day): 255.7 g
- TERMINAL_BW ([…], time 28 day): 314.6 g
- APTT ([…], time 7 day): 16.3 s
- Bas ([…], time 7 day): 0%
- Eos ([…], time 7 day): 0.6%
- Fbg ([…], time 7 day): 236.4 mg/dL
- Hb ([…], time 7 day): 13.6 g/dL
- Ht ([…], time 7 day): 40.5%
- Lym ([…], time 7 day): 81.4%
- MCH ([…], time 7 day): 20 pg
- MCHC ([…], time 7 day): 33.5%
- MCV ([…], time 7 day): 59.7 fL
- Mono ([…], time 7 day): 4.6%
- Neu ([…], time 7 day): 13.2%
- PT ([…], time 7 day): 12.1 s
- Plat ([…], time 7 day): 138 x10_4/uL
- RBC ([…], time 7 day): 678.2 x10_4/ul
- Ret ([…], time 7 day): 4.7%
- WBC ([…], time 7 day): 126.4 x10_2/uL
- APTT ([…], time 14 day): 16.2 s
- Bas ([…], time 14 day): 0%
- Eos ([…], time 14 day): 1.2%
- Fbg ([…], time 14 day): 212.8 mg/dL
- Hb ([…], time 14 day): 13.3 g/dL
- Ht ([…], time 14 day): 39.7%
- Lym ([…], time 14 day): 73.4%
- MCH ([…], time 14 day): 18.9 pg
- MCHC ([…], time 14 day): 33.6%
- MCV ([…], time 14 day): 56.2 fL
- Mono ([…], time 14 day): 5.8%
- Neu ([…], time 14 day): 19.8%
- PT ([…], time 14 day): 12.3 s
- Plat ([…], time 14 day): 134 x10_4/uL
- RBC ([…], time 14 day): 707.4 x10_4/ul
- Ret ([…], time 14 day): 5.4%
- WBC ([…], time 14 day): 130.8 x10_2/uL
- APTT ([…], time 28 day): 15.9 s
- Bas ([…], time 28 day): 0%
- Eos ([…], time 28 day): 0.8%
- Fbg ([…], time 28 day): 226.2 mg/dL
- Hb ([…], time 28 day): 13 g/dL
- Ht ([…], time 28 day): 39%
- Lym ([…], time 28 day): 84.2%
- MCH ([…], time 28 day): 16.6 pg
- MCHC ([…], time 28 day): 33.2%
- MCV ([…], time 28 day): 50 fL
- Mono ([…], time 28 day): 5.5%
- Neu ([…], time 28 day): 9.2%
- PT ([…], time 28 day): 12.2 s
- Plat ([…], time 28 day): 130.1 x10_4/uL
- RBC ([…], time 28 day): 781.8 x10_4/ul
- Ret ([…], time 28 day): 3.8%
- WBC ([…], time 28 day): 181.2 x10_2/uL
- KIDNEY_L ([…], time 7 day): 1.2 g
- KIDNEY_R ([…], time 7 day): 1.2 g
- KIDNEY_TOTAL ([…], time 7 day): 2.3 g
- KIDNEY_L ([…], time 14 day): 1.2 g
- KIDNEY_R ([…], time 14 day): 1.2 g
- KIDNEY_TOTAL ([…], time 14 day): 2.3 g
- KIDNEY_L ([…], time 28 day): 1.4 g
- KIDNEY_R ([…], time 28 day): 1.4 g
- KIDNEY_TOTAL ([…], time 28 day): 2.8 g
- LIVER ([…], time 7 day): 11.1 g
- LIVER ([…], time 14 day): 12.1 g
- LIVER ([…], time 28 day): 12.6 g
- A/G ([…], time 7 day): 1.6
- ALP ([…], time 7 day): 757.4 IU/L
- ALT ([…], time 7 day): 8.6 IU/L
- AST ([…], time 7 day): 46.8 IU/L
- BUN ([…], time 7 day): 16.2 mg/dL
- CRE ([…], time 7 day): 0.5 mg/dL
- Ca ([…], time 7 day): 10.4 mg/dL
- Cl ([…], time 7 day): 105 meq/L
- DBIL ([…], time 7 day): 0.028 mg/dL
- GLC ([…], time 7 day): 212.2 mg/dL
- IP ([…], time 7 day): 8 mg/dL
- K ([…], time 7 day): 5.1 meq/L
- LDH ([…], time 7 day): 77.6 IU/L
- Na ([…], time 7 day): 140.6 meq/L
- PL ([…], time 7 day): 127.8 mg/dL
- RALB ([…], time 7 day): 3.8 g/dL
- TBIL ([…], time 7 day): 0.3 mg/dL
- TC ([…], time 7 day): 64.4 mg/dL
- TG ([…], time 7 day): 62.2 mg/dL
- TP ([…], time 7 day): 6.1 g/dL
- gamma-GTP ([…], time 7 day): 1.2 IU/L
- A/G ([…], time 14 day): 1.7
- ALP ([…], time 14 day): 587.6 IU/L
- ALT ([…], time 14 day): 8.8 IU/L
- AST ([…], time 14 day): 48.4 IU/L
- BUN ([…], time 14 day): 20.4 mg/dL
- CRE ([…], time 14 day): 0.6 mg/dL
- Ca ([…], time 14 day): 10.3 mg/dL
- Cl ([…], time 14 day): 106.8 meq/L
- DBIL ([…], time 14 day): 0.004 mg/dL
- GLC ([…], time 14 day): 210.8 mg/dL
- IP ([…], time 14 day): 7.8 mg/dL
- K ([…], time 14 day): 5.1 meq/L
- LDH ([…], time 14 day): 123.4 IU/L
- Na ([…], time 14 day): 139.8 meq/L
- PL ([…], time 14 day): 123.2 mg/dL
- RALB ([…], time 14 day): 3.7 g/dL
- TBIL ([…], time 14 day): 0.3 mg/dL
- TC ([…], time 14 day): 60.2 mg/dL
- TG ([…], time 14 day): 61.8 mg/dL
- TP ([…], time 14 day): 5.9 g/dL
- gamma-GTP ([…], time 14 day): 0.2 IU/L
- A/G ([…], time 28 day): 1.6
- ALP ([…], time 28 day): 533 IU/L
- ALT ([…], time 28 day): 6.8 IU/L
- AST ([…], time 28 day): 49.8 IU/L
- BUN ([…], time 28 day): 19.5 mg/dL
- CRE ([…], time 28 day): 0.6 mg/dL
- Ca ([…], time 28 day): 9.9 mg/dL
- Cl ([…], time 28 day): 106 meq/L
- DBIL ([…], time 28 day): 0.0525 mg/dL
- GLC ([…], time 28 day): 212.5 mg/dL
- IP ([…], time 28 day): 6.7 mg/dL
- K ([…], time 28 day): 4.9 meq/L
- LDH ([…], time 28 day): 81.2 IU/L
- Na ([…], time 28 day): 140.8 meq/L
- PL ([…], time 28 day): 108.2 mg/dL
- RALB ([…], time 28 day): 3.6 g/dL
- TBIL ([…], time 28 day): 0.2 mg/dL
- TC ([…], time 28 day): 53.8 mg/dL
- TG ([…], time 28 day): 41.8 mg/dL
- TP ([…], time 28 day): 5.8 g/dL
- gamma-GTP ([…], time 28 day): 1.5 IU/L
